# Patent publication US6472348B1, “Pyridone derivatives and herbicides” (Kumiai Chemical Industry Co., Ltd., priority 1996, dated 2002)
# Key:
# [1] = tested on: pale smartweed (Po); assay: Test Example 2: herbicidal effects by upland field soil treatment; assay type: in vivo; settings: 100 g of the active ingredient per 10 ares;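 also: grade of growth control; 5 = at least 90%; 4 = 70 to 90%; 3 = 50 to 70%; 2 = 30 to 50%; 1 = 10 to 30%; 0 = under 10%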
# Description: (§1) (Test on Herbicidal Effects by Upland Field Soil Treatment)
# [2] = tested on: slender amaranth (Am); assay: as above; assay type: in vivo; settings: 100 g of the active ingredient per 10 ares
# Description: as §1
# [3] = tested on: common lambsquarters (Ch); assay: as above; assay type: in vivo; settings: 100 g of the active ingredient per 10 ares
# Description: as §1
# [4] = tested on: barnyardgrass (Ec); assay: as above; assay type: in vivo; settings: 100 g of the active ingredient per 10 ares
# Description: as §1
# [5] = tested on: Digitaria ciliaris (Di); assay: as above; assay type: in vivo; settings: 100 g of the active ingredient per 10 ares;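 also: grade of growth control; 5 = at least 90%; 4 = 70 to 90%; 3 = 50 to 70%; 2 = 30 to 50%; 1 = 10 to 30%; 0 = under 10%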
# Description: as §1
# [6] = tested on: rice flatsedge (Ci); assay: as above; assay type: in vivo; settings: 100 g of the active ingredient per 10 ares
# Description: as §1
# [7] = tested on: bulrush (Sc); assay: Test Example 1: herbicidal effects by paddy field soil treatment; assay type: in vivo; settings: 100 g of the active ingredient per 10 ares, 21st day after the application, index 0-5 of Table 47;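 also: grade of growth control; 5 = at least 90%; 4 = 70 to 90%; 3 = 50 to 70%; 2 = 30 to 50%; 1 = 10 to 30%; 0 = under 10%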
# How it was run: (§2)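 Herbicidal effect was scored against a graded standard 21 days after treatment. Seeds were sown in puddled, leveled paddy soil flooded to 3 cm depth, and the active ingredient was applied at 100 g per 10 ares before greenhouse culture.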
# [8] = tested on: barnyardgrass (Ec); assay: as above; assay type: in vivo; settings: 100 g of the active ingredient per 10 ares, 21st day after the application, index 0-5 of Table 47
# How it was run: as §2
# [9] = tested on: monochoria (Mo); assay: as above; assay type: in vivo; settings: 100 g of the active ingredient per 10 ares, 21st day after the application, index 0-5 of Table 47;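 also: grade of growth control; 5 = at least 90%; 4 = 70 to 90%; 3 = 50 to 70%; 2 = 30 to 50%; 1 = 10 to 30%; 0 = under 10%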
# How it was run: as §2
# [10] = tested on: pale smartweed (Po); assay: Test Example 3: herbicidal effects by upland field foliage treatment; assay type: in vivo; set-up: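 grade of growth control; 5 = at least 90%; 4 = 70 to 90%; 3 = 50 to 70%; 2 = 30 to 50%; 1 = 10 to 30%; 0 = under 10%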
# How it was run: (§3)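 Weeds sown in sand-filled pots and grown 2 weeks in a greenhouse before foliage treatment. Plants then kept in the greenhouse; herbicidal effect scored on day 14 after treatment against a graded standard scale.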
# [11] = tested on: Diaitaria ciliaris (Di); assay: as above; assay type: in vivo; set-up: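 grade of growth control; 5 = at least 90%; 4 = 70 to 90%; 3 = 50 to 70%; 2 = 30 to 50%; 1 = 10 to 30%; 0 = under 10%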
# How it was run: as §3
# [12] = tested on: slender amaranth (Am); assay: as above; assay type: in vivo; set-up: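 grade of growth control; 5 = at least 90%; 4 = 70 to 90%; 3 = 50 to 70%; 2 = 30 to 50%; 1 = 10 to 30%; 0 = under 10%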
# How it was run: as §3
# [13] = tested on: common lambsquarters (Ch); assay: as above; assay type: in vivo; set-up: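 grade of growth control; 5 = at least 90%; 4 = 70 to 90%; 3 = 50 to 70%; 2 = 30 to 50%; 1 = 10 to 30%; 0 = under 10%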
# How it was run: as §3
# [14] = tested on: barnyardgrass (Ec); assay: as above; assay type: in vivo; set-up: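 grade of growth control; 5 = at least 90%; 4 = 70 to 90%; 3 = 50 to 70%; 2 = 30 to 50%; 1 = 10 to 30%; 0 = under 10%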
# How it was run: as §3
# [15] = tested on: rice flatsedge (Ci); assay: as above; assay type: in vivo; set-up: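 grade of growth control; 5 = at least 90%; 4 = 70 to 90%; 3 = 50 to 70%; 2 = 30 to 50%; 1 = 10 to 30%; 0 = under 10%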
# How it was run: as §3
# [16] = 21st day after the application, index 0-5 of Table 47
# [17] = 100 g of the active ingredient per 10 ares, evaluated on the 14th day after treatment
# [18] = evaluated on the 21st day after application
# [19] = 100 g active ingredient per 10 ares, evaluated 14th day after treatment
structure (smiles),measurement,setting,value
"Cn1c(C(F)(F)F)ccc(-c2ccc(Cl)cc2F)c1=O [Compound No. 1-2, 3-(4-chloro-2-fluorophenyl)-1-methyl-6-trifluoromethyl-2(1H)-pyridone]",melting point,,103 to 104 °C
same,Herbicidal effects Po,[1]; [16],5
same,Herbicidal effects Am,[2]; [16],5
same,Herbicidal effects Ch,[3]; [16],5
same,Herbicidal effects Ec,[4]; [16],5
same,Herbicidal effects Di,[5]; [16],5
same,Herbicidal effects Ci,[6]; [16],5
same,Herbicidal effects Sc,[7],5
same,Herbicidal effects Ec,[8],5
same,Herbicidal effects Mo,[9],5
same,Herbicidal effects Po,[10]; [17],5
same,Herbicidal effects Di,[11]; [17],5
same,Herbicidal effects Am,[12]; [17],5
same,Herbicidal effects Ch,[13]; [17],5
same,Herbicidal effects Ec,[14]; [17],5
same,Herbicidal effects Ci,[15]; [17],5
"Nn1c(C(F)(F)F)ccc(-c2ccc(Cl)cc2Cl)c1=O [Compound No. 1-5, 1-amino-3-(2,4-dichlorophenyl)-6-trifluoromethyl-2(1H)-pyridone]",melting point,,98 to 100 °C
same,Herbicidal effects Po,[1]; [16],5
same,Herbicidal effects Am,[2]; [16],5
same,Herbicidal effects Ch,[3]; [16],5
same,Herbicidal effects Ec,[4]; [16],5
same,Herbicidal effects Di,[5]; [16],5
same,Herbicidal effects Ci,[6]; [16],5
same,Herbicidal effects Sc,[7],5
same,Herbicidal effects Ec,[8],5
same,Herbicidal effects Mo,[9],5
same,Herbicidal effects Po,[10]; [17],5
same,Herbicidal effects Di,[11]; [17],5
same,Herbicidal effects Am,[12]; [17],5
same,Herbicidal effects Ch,[13]; [17],5
same,Herbicidal effects Ec,[14]; [17],5
same,Herbicidal effects Ci,[15]; [17],5
"Cn1c(C(F)(F)F)ccc(-c2ccc(F)cc2F)c1=O [Compound No. 1-12, 3-(2,4-difluorophenyl)-1-methyl-6-trifluoromethyl-2(1H)-pyridone]",melting point,,123 to 124 °C
same,Herbicidal effects Sc,[7],5
same,Herbicidal effects Ec,[8],5
same,Herbicidal effects Mo,[9],5
"Cn1c(C(F)(F)F)ccc(-c2cc([N+](=O)[O-])c(Cl)cc2F)c1=O [Compound No. 1-58, 3-(4-chloro-2-fluoro-5-nitrophenyl)-1-methyl-6-trifluoromethyl-2(1H)-pyridone]",melting point,,139 to 140 °C
same,Herbicidal effects Sc,[7],5
same,Herbicidal effects Ec,[8],5
same,Herbicidal effects Mo,[9],5
"Cn1c(C(F)(F)F)ccc(-c2cc(NS(C)(=O)=O)c(Cl)cc2F)c1=O [Compound No. 1-60, 3-(4-chloro-2-fluoro-5-methylsulfonylaminophenyl)-1-methyl-6-trifluoromethyl-2(1H)-pyridone]",melting point,,113 to 114 °C
same,Herbicidal effects Po,[1]; [16],5
same,Herbicidal effects Am,[2]; [16],5
same,Herbicidal effects Ch,[3]; [16],5
same,Herbicidal effects Ec,[4]; [16],5
same,Herbicidal effects Di,[5]; [16],5
same,Herbicidal effects Ci,[6]; [16],5
same,Herbicidal effects Sc,[7],5
same,Herbicidal effects Ec,[8],5
same,Herbicidal effects Mo,[9],5
same,Herbicidal effects Po,[10]; [17],5
same,Herbicidal effects Di,[11]; [17],5
same,Herbicidal effects Am,[12]; [17],5
same,Herbicidal effects Ch,[13]; [17],5
same,Herbicidal effects Ec,[14]; [17],5
same,Herbicidal effects Ci,[15]; [17],5
"Cn1c(C(F)(F)F)ccc(-c2cc(S(C)(=O)=O)c(Cl)cc2F)c1=O [Compound No. 1-73, 3-(4-chloro-2-fluoro-5-methylsulfonylphenyl)-1-methyl-6-trifluoromethyl-2(1H)-pyridone]",melting point,,144 to 145 °C
same,Herbicidal effects Po,[1]; [16],5
same,Herbicidal effects Am,[2]; [16],5
same,Herbicidal effects Ch,[3]; [16],5
same,Herbicidal effects Ec,[4]; [16],4
same,Herbicidal effects Di,[5]; [16],5
same,Herbicidal effects Ci,[6]; [16],5
same,Herbicidal effects Sc,[7],5
same,Herbicidal effects Ec,[8],5
same,Herbicidal effects Mo,[9],5
"Cn1c(C(F)(F)F)ccc(-c2cc(S(=O)(=O)Cl)c(Cl)cc2F)c1=O [Compound No. 1-84, 3-(4-chloro-5-chlorosulfonyl-2-fluorophenyl)-1-methyl-6-trifluoromethyl-2(1H)-pyridone]",melting point,,77 to 78 °C
same,Herbicidal effects Po,[10]; [17],5
same,Herbicidal effects Di,[11]; [17],5
same,Herbicidal effects Am,[12]; [17],5
same,Herbicidal effects Ch,[13]; [17],5
same,Herbicidal effects Ec,[14]; [17],5
same,Herbicidal effects Ci,[15]; [17],5
"Cn1c(C(F)(F)F)ccc(-c2cc([S+](C)[O-])c(Cl)cc2F)c1=O (stereo not drawn) [Compound No. 1-88, 3-(4-chloro-2-fluoro-5-methylsulfinylphenyl)-1-methyl-6-trifluoromethyl-2(1H)-pyridone]",melting point,,147 to 148 °C
same,Herbicidal effects Po,[1]; [16],5
same,Herbicidal effects Am,[2]; [16],5
same,Herbicidal effects Ch,[3]; [16],5
same,Herbicidal effects Ec,[4]; [16],4
same,Herbicidal effects Di,[5]; [16],5
same,Herbicidal effects Ci,[6]; [16],5
same,Herbicidal effects Sc,[7],5
same,Herbicidal effects Ec,[8],5
same,Herbicidal effects Mo,[9],5
"C#CCn1c(=O)oc2cc(Cl)c(-c3ccc(C(F)(F)F)n(C)c3=O)cc21 [Compound No. 3-9, 3-[6-chloro-3-(2-propynyl)-benzoxazolin-2-on-5-yl]-1-methyl-6-trifluoromethyl-2(1H)-pyridone]",melting point,,187 to 189 °C
same,Herbicidal effects Po,[1]; [18],5
same,Herbicidal effects Am,[2]; [18],5
same,Herbicidal effects Ch,[3]; [18],5
same,Herbicidal effects Ec,[4]; [18],5
same,Herbicidal effects Di,[5]; [18],5
same,Herbicidal effects Ci,[6]; [18],5
same,Herbicidal effects Sc,[7],5
same,Herbicidal effects Ec,[8],5
same,Herbicidal effects Mo,[9],5
"CCOC(=O)c1cc2c(-c3ccc(C(F)(F)F)n(C)c3=O)c(F)cc(Cl)c2o1 [Compound No. 4-6, 3-(7-chloro-2-ethoxycarbonyl-5-fluorobenzofuran-4-yl)-1-methyl-6-trifluoromethyl-2-(1H)-pyridone]",melting point,,118 to 120 °C
same,Herbicidal effects Sc,[7],5
same,Herbicidal effects Ec,[8],5
same,Herbicidal effects Mo,[9],5
same,Herbicidal effects Po,[10]; [19],5
same,Herbicidal effects Di,[11]; [19],4
same,Herbicidal effects Am,[12]; [19],5
same,Herbicidal effects Ch,[13]; [19],5
same,Herbicidal effects Ec,[14]; [19],5
same,Herbicidal effects Ci,[15]; [19],5
"CCC(c1cc2c(-c3ccc(C(F)(F)F)n(C)c3=O)c(F)cc(Cl)c2o1)S(C)(=O)=O (stereo not drawn) [Compound No. 4-58, 3-[7-chloro-5-fluoro-2-(1-methylsulfonylpropyl)benzofuran-4-yl]-1-methyl-6-trifluoromethyl-2-(1H)-pyridone]",melting point,,146 to 148 °C
"Cn1cc(-c2ccc(Cl)cc2Cl)c(=O)cc1C(F)(F)F [Compound No. 6-3, 5-(2,4-dichlorophenyl)-1-methyl-2-trifluoromethyl-4(1H)-pyridone]",melting point,,205 to 206 °C
"CCOC(=O)c1c(C(F)(F)F)n(C)cc(-c2cc(OC(C)C)c(Cl)cc2F)c1=O [Compound No. 6-42, 5-(4-chloro-2-fluoro-5-isopropoxyphenyl)-3-ethoxycarbonyl-1-methyl-2-trifluoromethyl-4(1H)-pyridone]",melting point,,170 to 172 °C
"CCOC(=O)c1c(C(F)(F)F)[nH]cc(-c2cc(OC(C)C)c(Cl)cc2F)c1=O [Compound No. 6-57, 5-(4-chloro-2-fluoro-5-isopropoxyphenyl)-3-ethoxycarbonyl-2-trifluoromethyl-4(1H)-pyridone]",melting point,,118 to 119 °C
"Cn1c(C(F)(F)F)cc(Cl)c(-c2ccc(Cl)cc2)c1=O [Compound No. 11-1, 3-(4-chlorophenyl)-4-chloro-1-methyl-6-trifluoromethyl-2(1H)-pyridone]",melting point,,48 to 50 °C
"Cn1c(C(F)(F)F)cc(F)c(-c2ccc(Cl)cc2)c1=O [Compound No. 11-2, 3-(4-chlorophenyl)-4-fluoro-1-methyl-6-trifluoromethyl-2(1H)-pyridone]",melting point,,120 to 122 °C
"Cn1c(C(F)(F)F)cc(Cl)c(-c2ccc(Cl)c(NS(C)(=O)=O)c2)c1=O [Compound No. 11-3, 3-(4-chloro-3-methylsulfonylaminophenyl)-4-chloro-1-methyl-6-trifluoromethyl-2(1H)-pyridone]",melting point,,161 to 163 °C
"Cn1c(C(F)(F)F)cc(=O)c(-c2ccc(Cl)cc2)c1Cl [Compound No. 13-1, 3-(4-chlorophenyl)-2-chloro-1-methyl-6-trifluoromethyl-4(1H)-pyridone]",melting point,,88 to 90 °C
